Target: T1, Glucocorticoid Receptor (GR) (Homo sapiens, UniProt P04150)
T1 construct: purchased Invitrogen P2893
T1 sequence (P04150 1-777): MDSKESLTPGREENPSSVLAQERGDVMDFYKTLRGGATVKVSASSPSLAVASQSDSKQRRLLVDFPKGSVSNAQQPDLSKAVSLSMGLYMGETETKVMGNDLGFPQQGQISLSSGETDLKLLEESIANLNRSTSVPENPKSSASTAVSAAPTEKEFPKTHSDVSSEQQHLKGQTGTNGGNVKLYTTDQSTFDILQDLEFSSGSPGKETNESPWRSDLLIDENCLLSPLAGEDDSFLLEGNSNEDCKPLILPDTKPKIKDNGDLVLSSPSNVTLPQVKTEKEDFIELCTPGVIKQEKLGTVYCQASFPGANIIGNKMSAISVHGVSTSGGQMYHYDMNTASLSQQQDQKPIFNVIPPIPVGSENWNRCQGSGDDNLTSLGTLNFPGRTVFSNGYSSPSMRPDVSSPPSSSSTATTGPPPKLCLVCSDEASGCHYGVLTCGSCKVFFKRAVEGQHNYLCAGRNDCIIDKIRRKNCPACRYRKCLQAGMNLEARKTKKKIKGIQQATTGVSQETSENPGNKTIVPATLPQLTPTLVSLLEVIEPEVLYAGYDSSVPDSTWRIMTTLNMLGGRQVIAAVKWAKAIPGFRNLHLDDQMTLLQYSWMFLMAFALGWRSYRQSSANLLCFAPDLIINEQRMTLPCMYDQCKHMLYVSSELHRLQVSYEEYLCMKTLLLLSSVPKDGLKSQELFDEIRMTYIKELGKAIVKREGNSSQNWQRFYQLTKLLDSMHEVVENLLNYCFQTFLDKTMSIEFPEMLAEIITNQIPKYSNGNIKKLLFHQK
Test: GR Florescence Polarization Assay (PolarScreen Glucocorticoid Receptor Competitor Assay, Red)
Conditions: Fluorescense polarization binding ranges; competition with fluorescent glucocorticoid, incubated overnight at 4° C.
Experimental: GR Florescence Polarization Assay Florescence polarization assays were carried out using the PolarScreen™ Glucocorticoid Receptor Competitor Assay, Red from Invitrogen (P2893). The assay buffer was prepared according to the manufacturer's protocol and used to dilute the fluorescent glucocorticoid and GR. Compounds were prepared and serial diluted 1:4 in DMSO. Compound, fluorescent glucocorticoid and GR were added in a final volume of 20 μL and incubated overnight at 4° C. Fluorescent polarization was measured on the Perkinelmer Envision®.

Row | SMILES | IC50
1 | CC[C@@]1(O)CC[C@@]2(Cc3ccccc3)c3cc(C(=O)Nc4cccnc4C)cn3CCC[C@H]2C1 (racemic) [Example 144, (7aS,9R,11aS)-11a-Benzyl-9-ethyl-9-hydroxy-N-(2-methylpyridin-3-yl)-6,7,7a,8,9,10,11,11a-octahydro-5H-benzo[c]pyrrolo[1,2-a]azepine-2-carboxamide; compound with (7aR,9S,11aR)-11a-benzyl-9-ethyl-9-hydroxy-N-(2-methylpyridin-3-yl)-6,7,7a,8,9,10,11,11a-octahydro-5H-benzo[c]pyrrolo[1,2-a]azepine-2-carboxamide] | 1000 to 10000 nM
2 | CCC[C@@]1(O)CC[C@@]2(CC)c3ccc(C(=O)Nc4ccccc4N)cc3CCC[C@H]2C1 (racemic) [Example 145, (7aS,9R,11aR)-11a-Ethyl-9-hydroxy-9-propyl-6,7,7a,8,9,10,11,11a-octahydro-5H-dibenzo[a,c]cycloheptene-3-carboxylic acid (2-amino-phenyl)-amide; compound with (7aR,9S,11aS)-11a-ethyl-9-hydroxy-9-propyl-6,7,7a,8,9,10,11,11a-octahydro-5H-dibenzo[a,c]cycloheptene-3-carboxylic acid (2-amino-phenyl)-amide] | < 100 nM
3 | CCC[C@@]1(O)CC[C@@]2(CC)c3ccc(-c4nc5ccccc5[nH]4)cc3CCC[C@H]2C1 (racemic) [Example 146, (3R,4aS,11bR)-9-(1H-Benzoimidazol-2-yl)-11b-ethyl-3-propyl-2,3,4,4a,5,6,7,11b-octahydro-1H-dibenzo[a,c]cyclohepten-3-ol; compound with (3S,4aR,11bS)-9-(1H-benzoimidazol-2-yl)-11b-ethyl-3-propyl-2,3,4,4a,5,6,7,11b-octahydro-1H-dibenzo[a,c]cyclohepten-3-ol] | 100 to 1000 nM
4 | CCC[C@@]1(O)CC[C@@]2(CC)c3ccc(C(=O)Nc4cccnc4N)cc3CCC[C@H]2C1 (racemic) [Example 149, (7aS,9R,11aR)-11a-Ethyl-9-hydroxy-9-propyl-6,7,7a,8,9,10,11,11a-octahydro-5H-dibenzo[a,c]cycloheptene-3-carboxylic acid (2-amino-pyridin-3-yl)-amide; compound with (7aR,9S,11aS)-11a-ethyl-9-hydroxy-9-propyl-6,7,7a,8,9,10,11,11a-octahydro-5H-dibenzo[a,c]cycloheptene-3-carboxylic acid(2-amino-pyridin-3-yl)-amide] | < 100 nM
5 | CCC[C@@]1(O)CC[C@@]2(CC3CC3)c3ccc(C(=O)Nc4cccnc4C)cc3CCC[C@H]2C1 (racemic) [Example 150, (7aR,9R,11aS)-11a-Cyclopropylmethyl-9-hydroxy-9-propyl-6,7,7a,8,9,10,11,11a-octahydro-5H-dibenzo[a,c]cycloheptene-3-carboxylic acid (2-methyl-pyridin-3-yl)-amide; compound with (7aS,9S,11aR)-11a-cyclopropylmethyl-9-hydroxy-9-propyl-6,7,7a,8,9,10,11,11a-octahydro-5H-dibenzo[a,c]cycloheptene-3-carboxylic acid (2-methyl-pyridin-3-yl)-amide] | < 100 nM
6 | CC[C@@]1(O)CC[C@@]2(Cc3ccccc3)c3ccc(C(=O)Nc4cccnc4C)cc3CCC[C@H]2C1 (single isomer, unassigned) [Example 14] | < 100 nM
7 | CC[C@]1(O)CC[C@]2(Cc3ccccc3)c3ccc(C(=O)Nc4cccnc4C)cc3CCC[C@@H]2C1 (single isomer, unassigned) [Example 15] | 100 to 1000 nM
8 | CC[C@@]1(O)CC[C@@]2(Cc3ccccc3)c3ccc(C(=O)Nc4cccnc4C)cc3C(=O)CC[C@H]2C1 (single isomer, unassigned) [Example 24] | < 100 nM
9 | CC[C@]1(O)CC[C@]2(Cc3ccccc3)c3ccc(C(=O)Nc4cccnc4C)cc3C(=O)CC[C@@H]2C1 (single isomer, unassigned) [Example 25] | 1000 to 10000 nM
10 | CCC[C@]1(O)CC[C@]2(CC)c3ccc(C(=O)Nc4cccnc4C)cc3CCC[C@@H]2C1 (single isomer, unassigned) [Example 44] | 100 to 1000 nM

From patent US20120238549A1, “Nuclear Hormone Receptor Modulators” (ABBOTT LABORATORIES, priority 2011, published 2012)
